# Assay results taken from ChEMBL document CHEMBL2417393, “Structure guided optimization of a fragment hit to imidazopyridine inhibitors of PI3K” (Bioorg Med Chem Lett, 2013).
# Assays:
# [1] = Apparent permeability from basolateral to apical side in human Caco2 cells; assay type: ADME, cell-based; settings: Caco-2
# [2] = Apparent permeability from apical to basolateral side in human Caco2 cells; assay type: ADME, cell-based; settings: Caco-2
# [3] = Half life in rat microsomes; assay type: ADME, Microsome
# [4] = Clearance in rat microsomes; assay type: ADME, Microsome
# [5] = Cmax in rat at 10 mg/kg, po; assay type: ADME, organism-based; parameters: dose 10 mg/kg, route oral; settings: in vivo
# [6] = AUC in rat at 10 mg/kg, po; assay type: ADME, organism-based; parameters: dose 10 mg/kg, route oral; settings: plasma
# [7] = Bioavailability in rat at 5 mg/kg, iv; assay type: ADME, organism-based; settings: in vivo
# [8] = Half life in rat at 5 mg/kg, iv; assay type: ADME, organism-based; parameters: dose 5 mg/kg, route intravenous; settings: in vivo
# [9] = Clearance in rat at 5 mg/kg, iv; assay type: ADME, organism-based; parameters: dose 5 mg/kg, route intravenous; settings: in vivo
# [10] = Volume of distribution at steady state in rat at 5 mg/kg, iv; assay type: ADME, organism-based; parameters: dose 5 mg/kg, route intravenous; settings: in vivo, read-out: Vdss
# [11] = Solubility of the compound in PBS buffer at pH 7.4; assay type: physicochemical
# [12] = Lipophilicity, log D of the compound at pH 7.4; assay type: physicochemical; settings: buffer
compound,measurement,setting,value
COc1cc(-c2ccc3nc(NC(C)=O)sc3c2)cnc1N,Papp B→A,[1],18 ×10⁻⁶ cm/s
same,Papp A→B,[2],6.7 ×10⁻⁶ cm/s
CC(=O)Nc1nc2ccc(-c3ccc(N)nc3)cc2s1,half-life,[3],3.12 h
same,clearance,[4],4 µL/min/mg
same,Papp B→A,[1],42 ×10⁻⁶ cm/s
same,Papp A→B,[2],46 ×10⁻⁶ cm/s
same,Cmax,[5],2500 nM
same,AUC,[6],16 µM·h
same,bioavailability,[7],57%
same,half-life,[8],2.5 h
same,clearance,[9],19 mL/min/kg
same,Vd,[10],3.6 L/kg
same,solubility,[11],4.2 µM
CC(=O)Nc1nc2ccc(-c3cnc(N)c(C(F)(F)F)c3)cc2s1,half-life,[3],13 h
same,clearance,[4],8 µL/min/mg
same,Papp B→A,[1],13 ×10⁻⁶ cm/s
same,Papp A→B,[2],16 ×10⁻⁶ cm/s
same,Cmax,[5],2900 nM
same,AUC,[6],18 µM·h
same,solubility,[11],1.5 µM
Nc1ccc(-c2ccc3nc(NC(=O)CN4CCCCC4)sc3c2)cn1,solubility,[11],7.1 µM
Nc1ccc(-c2ccc3nc(NC(=O)CCCN4CCCCC4)sc3c2)cn1,solubility,[11],28 µM
Nc1ncc(-c2ccc3nc(NC(=O)CCCN4CCCCC4)sc3c2)cc1C(F)(F)F,solubility,[11],56 µM
Nc1ncc(-c2ccc3nc(NC(=O)CCCN4CCOCC4)sc3c2)cc1C(F)(F)F,solubility,[11],8.3 µM
CC(=O)Nc1cn2cc(-c3cnc(N)c(C(F)(F)F)c3)ccc2n1,half-life,[3],13 h
same,clearance,[4],8 µL/min/mg
same,Papp B→A,[1],40 ×10⁻⁶ cm/s
same,Papp A→B,[2],40 ×10⁻⁶ cm/s
same,Cmax,[5],15700 nM
same,AUC,[6],198 µM·h
same,bioavailability,[7],95%
same,half-life,[8],3 h
same,clearance,[9],2 mL/min/kg
same,Vd,[10],0.68 L/kg
CC(=O)Nc1cn2cc(-c3cnc(N)c(C(F)(F)F)c3)ncc2n1,solubility,[11],1 µM
CC(=O)Nc1nc2ccc(-c3cnc(N)c(C(F)(F)F)c3)cc2o1,solubility,[11],1.3 µM
CC(=O)Nc1ncc2cc(-c3cnc(N)c(C(F)(F)F)c3)ccc2n1,solubility,[11],0.5 µM
CC(=O)Nc1cn2cc(-c3cnc(N)c(C(F)(F)F)c3)cnc2n1,solubility,[11],4.8 µM
CC(=O)Nc1nc2ccc(-c3cnc(N)c(C(F)(F)F)c3)cc2n1C,solubility,[11],25 µM
COC(=O)c1ccc2nc(NC(C)=O)sc2c1,logD,[12],1.5
